In series [1] the test system is E. coli. The experiment in a line: Minimum inhibitory concentration by microdilution assay. Type of series: cell-based, Escherichia coli (ATCC 25922). Particulars: for MIC E. coli: 37° C., 24 h. As for the experimental part: (§1) Staphylococcus aureus (ATCC 6538, gram-positive), Escherichia coli (ATCC 25922, gram-negative), Pseudomonas aeruginosa (gram-negative), and Candida albicans (ATCC 10231, yeast) were used as representative microorganisms to challenge the antimicrobial functions of the imidazolium salts. All bacteria and yeast were stored frozen at −80° C., and were grown overnight at 37° C. in Tryptic Soy broth (TSB) prior to experiments. Yeast was grown overnight at 22° C. in Yeast Mold (YM) broth. Subsamples of these cultures were grown for 3 h further and diluted to give an optical density value of 0.07 at 600 nm, corresponding to 3×10^8 CFU mL^−1 (MacFarland's Standard).
(§2) The oligomer compounds were dissolved in PBS at a concentration of 1 mg mL^1 and the minimal inhibitory concentrations (MICs) were determined by microdilution assay. Typically, a 100 μL microbial solutions (containing 3×10^8 cells mL^−1) were added to 100 μL of PBS containing the test imidazolium salts (normally ranging from […] in serial two-fold dilutions) in each well of the 96-well microtiter plate. The plates were incubated at 37° C. for 24 h with shaking at 300 rpm, with monitoring at the 2, 4, 6, 8, and 24 h time points. […] Broth and PBS solution containing microbial cells alone were used as negative controls, and experiments were run in triplicates.
Background: Dilution methods test growth across graded concentrations, often in twofold steps.

Series [2] concerns S. aureus. The description is as above. The settings on record: 37° C., 24 h. Type of series: cell-based, Staphylococcus aureus (ATCC 6538). As to the method: as §1, §2
In series [3] the test system is P. aeruginosa. The series is described as above. Type of series: cell-based, Pseudomonas aeruginosa. Particulars: 37° C., 24 h. As to the method: as §1, §2
For series [4], the system named is C. Albicans. The description is as above. Type of series: cell-based, Candida albicans (ATCC 10231). Particulars: 24 h. As to the method:
as §1, §2

The test system of series [5] is 4 microbes (S. aureus, E. coli, P. aeruginosa, C. Albicans). The experiment in a line: MIC over the 4 microbes tested (geometric mean). The settings on record: geometric mean of the MICs of the 4 microbes. Type of series: cell-based. As to the method: Staphylococcus aureus (ATCC 6538, gram-positive), Escherichia coli (ATCC 25922, gram-negative), Pseudomonas aeruginosa (gram-negative), and Candida albicans (ATCC 10231, yeast) were used as representative microorganisms to challenge the antimicrobial functions of the imidazolium salts. All bacteria and yeast were stored frozen at −80° C., and were grown overnight at 37° C. in Tryptic Soy broth (TSB) prior to experiments. Yeast was grown overnight at 22° C. in Yeast Mold (YM) broth. […] Typically, a 100 μL microbial solutions (containing 3×10^8 cells mL^−1) were added to 100 μL of PBS containing the test imidazolium salts (normally ranging from […] in serial two-fold dilutions) in each well of the 96-well microtiter plate. The plates were incubated at 37° C. for 24 h with shaking at 300 rpm, with monitoring at the 2, 4, 6, 8, and 24 h time points. […] Broth and PBS solution containing microbial cells alone were used as negative controls, and experiments were run in triplicates. The selectivity of the materials was also further assessed, by calculating the selectivity indices (SI), a measure and a comparison of safety and efficacies of each oligomer compound. […] Herein, the more stringent control of HC10 value was chosen over the HC50 value often reported in literature.

For series [6], the system named is rat red blood cells (RBCs). The experiment in a line: Hemolysis. Type of series: cell-based. As for the experimental part: Before these materials can be used in systemic applications, selectivity of these materials for microbial cells over mammalian cells should also be considered. Such selectivity is often determined by observation of hemolysis. Hemolysis was performed in the following manner, fresh rat red blood cells (RBCs) were diluted with PBS buffer to give an RBC stock suspension (4 vol % blood cells). A 100 μL aliquot of RBC stock was added to a 96-well plate containing […] oligomer compound stock solutions of various concentrations (serial 2-fold dilution in PBS). After 1 h incubation at 37° C., The contents of each well was pipetted into a microcentrifuge tube and then centrifuged at 4000 rpm for 5 min. Hemolytic activity was determined as a function of hemoglobin release by measuring OD576 of […] of the supernatant. A control solution that contained only PBS was used as a reference for 0% hemolysis. 100% hemolysis was measured by adding 0.5% Triton-X to the RBCs. [formula] The selectivity of the materials was also further assessed, by calculating the selectivity indices (SI), a measure and a comparison of safety and efficacies of each oligomer compound. […] Herein, the more stringent control of HC10 value was chosen over the HC50 value often reported in literature.

The subject of series [7] is E. coli. Kind of series: Time kill kinetics. The class given is cell-based, Escherichia coli. As for the experimental part:
Time kill studies of the soligome compounds against E. coli were also studied. The experimental setup for time kill kinetics was similar to the set up for MBC determination. The microbes were treated with oligomer compounds at 4MIC concentration, and samples were taken out of each well at 2 minutes. 500 μl of cell suspension was removed, rescued by a series of 10-fold dilutions with growth medium, and kept on ice until plating. For plating, 50 μl to 200 μl of the diluted samples was spread on growth medium agar plates and colonies were counted after overnight incubation at 37° C.

A short description of series [8]: Critical micellar concentration (pyrene fluorescent probe). Particulars: for CMC in PBS: PBS buffer solution; for CMC in DI H2O: deionised water. The class given is physicochemical. As to the method:
The CMC values of the oligomer compounds were determined in both deionised (DI) water and PBS, using a LS50B luminescence spectrometer (Perkin Elmer, United States) and employing pyrene as a fluorescent probe. A known weight of the oligomer compound was dissolved in either 2 mL of DI water or PBS in a 4 mL glass vial and serial dilutions were effected. 10 μL of pyrene stock solution in acetone (6.16×10^-5 M) was added to each vial containing 1 mL of a known concentration of the oligomer compound, and the acetone was then evaporated at room temperature. The solution was allowed to equilibrate overnight and the final concentration of pyrene in each vial was 6.16×10^-7 M. The excitation spectra of the solutions were scanned from 300 to 360 nm with an emission wavelength of 395 nm, and both the excitation and emission bandwidths were set at 2.5 nm. The intensity ratios ([…]/[…]) were plotted against polymer concentration. The CMC value was given by the intersection of the tangent to the curve at the inflection and the tangent of the points at low polymer concentrations.

A short description of series [9]: Gelling properties in solvents (tube inversion test). The class given is physicochemical. As to the method:
Gels were prepared by weighing the imidazolium oligomer compounds directly into 4 mL glass vials and subsequently adding a known weight or volume of the solvent. The vials containing both the imidazolium and the solvent were either vortexed or sonicated to ensure that the imidazolium was dissolved and dispersed thoroughly before being placed in a 4° C. fridge overnight. The tube inversion test method was used to examine gel formation in different solvents.

Setting [10] is: lowest concentration that induces 10% or more hemolysis, rat RBCs, 1 h, 37° C., maximum tested 100,000 ppm.

Structures are written as SMILES. Where two headings read alike, the source gives them in different places.

One may read the MIC as the lowest concentration found to suppress growth. A high value points to a less susceptible organism.

In series [1] (Escherichia coli, Example 8, microbe not named, E. coli context), `CCCCCCCC[n+]1ccn(C)c1.[Br-]` [1-Methyl-3-octyl imidazolium bromide, reference compound] yielded a minimum inhibitory concentration (MIC) of 1000 µg/mL. Besides, in series [1] (ratio of MIC to that of Compound 2), the “MIC relative to Compound 2” value is “more than 100 times”.
As to `CCCCCCCCCC[n+]1ccn(Cc2ccc(C[n+]3ccn(Cc4ccc(C[n+]5ccn(Cc6ccccc6Cn6cc[n+](Cc7ccc(Cn8cc[n+](Cc9ccc(Cn%10cc[n+](CCCCCCCCCC)c%10)cc9)c8)cc7)c6)c5)cc4)c3)cc2)c1.[Br-].[Br-].[Cl-].[Cl-].[Cl-].[Cl-]` [Compound 3], in series [2], the “MIC S.A.” value is 4 µg/mL. The “MIC E. coli” value in series [1] worked out at 8 µg/mL. Further, in series [3], the “MIC P.A.” value amounted to 8 µg/mL. The “MIC C.A.” value in [4] worked out at 31 µg/mL. In addition, the “MIC GM” value in series [5] was determined as 9.44 µg/mL. Further, in [6], the HC10 is listed as 500 ppm. Further, the “fast killing in words” value in series [7] (E. coli time kill) is listed as “instantaneous elimination”. In addition, the “% kill” value in series [7] (E. coli, 4MIC, two minutes) is given as greater than 99.9%. The compound also yielded a Log reduction in [7] (E. coli, 4MIC, two minutes) of 3.49. For the same compound, the “sharp point of inflection indicating the critical micellar concentrations” value in series [8] (FIG. 4, deionized water) is “not observed”. Besides, the State in solvent entry in [9] (Acetone) was “Insoluble”; in series [9] (Acetonitrile) it was “Insoluble”; in series [9] (EtOH), “Gel”; in series [9] (Ethylene glycol) it was “Solution”; in series [9] (Glycerol) it was “Solution”; in series [9] (nBuOH), “Gel”. Moreover, the State in solvent entry in series [9] (nPrOH) was “Gel”. Besides, the entries for the “Concentration to form gel” value in [9] (EtOH), in series [9] (nBuOH) and in series [9] (nPrOH) were “(12 wt %)”, “(7.9 wt %)” and “(7.9 wt %)”, respectively.
Consider `CCCCCCCCCCCCCC[n+]1ccn(Cc2ccc(C[n+]3ccn(Cc4ccc(C[n+]5ccn(Cc6ccccc6Cn6cc[n+](Cc7ccc(Cn8cc[n+](Cc9ccc(Cn%10cc[n+](CCCCCCCCCCCCCC)c%10)cc9)c8)cc7)c6)c5)cc4)c3)cc2)c1.[Br-].[Br-].[Cl-].[Cl-].[Cl-].[Cl-]` [Compound 5], for which the “MIC S.A.” value in series [2] was determined as 4 µg/mL. In addition, in series [1], the “MIC E. coli” value was found to be 16 µg/mL. In addition, in [3], the “MIC P.A.” value stood at 16 µg/mL. Further, in [4], the “MIC C.A.” value was determined as 31 µg/mL. For the same compound, in series [5], the “MIC GM” value was found to be 13.35 µg/mL. Further, the HC10 in series [6] (setting [10]) is 15 ppm. Moreover, the “CMC in PBS” value in [8] was 4.9 ppm. Moreover, the “CMC in DI H2O” value in series [8] was 200.3 ppm. The State in solvent entry in series [9] (Acetone) was “Insoluble”; in [9] (Acetonitrile), “Insoluble”; in series [9] (EtOH) it was “Gel”; in [9] (Ethylene glycol) it was “Solution”; in [9] (Glycerol), “Solution”; in series [9] (nBuOH), “Gel”. The State in solvent entry in series [9] (nPrOH) is “Gel”. Also, the “Concentration to form gel” value in series [9] (EtOH) was “(12.9 wt %)”; in series [9] (nBuOH), “(5.3 wt %)”; in [9] (nPrOH), “(5.3 wt %)”.
With `CCCCCCCCCCCCCCCC[n+]1ccn(Cc2ccc(C[n+]3ccn(Cc4ccc(C[n+]5ccn(Cc6ccccc6Cn6cc[n+](Cc7ccc(Cn8cc[n+](Cc9ccc(Cn%10cc[n+](CCCCCCCCCCCCCCCC)c%10)cc9)c8)cc7)c6)c5)cc4)c3)cc2)c1.[Br-].[Br-].[Cl-].[Cl-].[Cl-].[Cl-]` [Compound 6], in [2], the “MIC S.A.” value was 8 µg/mL. Also, the “MIC E. coli” value in [1] was determined as 16 µg/mL. For the same compound, in series [3], the “MIC P.A.” value was 16 µg/mL. Further, in series [4], the “MIC C.A.” value stood at 62 µg/mL. Moreover, in series [5], the “MIC GM” value was determined as 18.88 µg/mL. The compound also showed an HC10 in series [6] (setting [10]) of 15 ppm. For the same compound, in [8], the “CMC in PBS” value is given as 1.3 ppm. Further, the “CMC in DI H2O” value in series [8] is 38.5 ppm. Further, the State in solvent result in series [9] (Acetone) is “Insoluble”; in series [9] (Acetonitrile) it was “Insoluble”; in [9] (EtOH), “Gel”; in series [9] (Ethylene glycol), “opaque gels and Gel”; in series [9] (Glycerol), “opaque gels and Gel”; in series [9] (nBuOH) it was “Gel”. Moreover, the State in solvent entry in [9] (nPrOH) is “Gel”. The “Concentration to form gel” value is on record as “(9.6 wt %)” in series [9] (EtOH); “(4.7 wt %)” in series [9] (Ethylene glycol); “(6.3 wt %)” in series [9] (Glycerol); “(6.9 wt %)” in [9] (nBuOH); “(6.9 wt %)” in [9] (nPrOH).
Consider `[Br-].[Br-].[Cl-].[Cl-].[Cl-].[Cl-].c1ccc(Cn2cc[n+](Cc3ccc(Cn4cc[n+](Cc5ccc(Cn6cc[n+](CC7CCCCC7)c6)cc5)c4)cc3)c2)c(Cn2cc[n+](Cc3ccc(Cn4cc[n+](Cc5ccc(Cn6cc[n+](CC7CCCCC7)c6)cc5)c4)cc3)c2)c1` [Compound 7], for which the “MIC S.A.” value in series [2] turned out to be 8 µg/mL. Besides, the “MIC E. coli” value in series [1] came to 16 µg/mL. For the same compound, in series [3], the “MIC P.A.” value came out at 16 µg/mL. Moreover, the “MIC C.A.” value in series [4] was 31 µg/mL. Further, the “MIC GM” value in series [5] was determined as 15.87 µg/mL. In series [6] (setting [10]), this compound registered an HC10 of 12500 ppm. Moreover, the Gel formation entry in series [9] (any of the solvents) is “not able to form gels”.

(Values after patent US10570097B2, “Antimicrobial imidazolium compounds” (AGENCY FOR SCIENCE, TECHNOLOGY AND RESEARCH, priority 2014, dated 2020).)
